These results are taken from article PMC3492287, “Lysosomotropic Properties of Weakly Basic Anticancer Agents Promote Cancer Cell Selectivity In Vitro” (PLoS ONE, 2012).

Molecules are shown by their SMILES. Entries after “also recorded” stand apart in the source; their conditions may differ. Like-named read-outs stand apart in the source and are kept apart here.

For series [1], the system named is MDA-MB-231 cells with low (scrambled shRNA) vs elevated (V1E1 shRNA) lysosomal pH. In words: intracellular distribution-based (IDB) selectivity from antiproliferative WST-1 IC50 values. It is filed as cell-based, human. From the text: We subsequently evaluated the IC50 of the Hsp90 inhibitors in both cell types (Figure S4) and calculated selectivity as IC50 in MDA-MB-231 cells with low lysosomal pH divided by IC50 in MDA-MB-231 cells with elevated lysosomal pH.
MDA-MB-231 cells with elevated lysosomal pH were generated by lentiviral vector-mediated knockdown of the V-ATPase V1E1 subunit (ATP6V1E1). The lentiviral transfer vector pPGK-Neo-ATP6V1E1 encoding the target sequence 5′-[…]-3′ against the V-ATPase V1E1 subunit was obtained from Mission (Sigma, St. Louis, MO). […] After the cells adhered, 2.6 µg of vector DNA was combined with 26 µL of the lentiviral packaging mix and transfected into cells using Fugene-6 transfection reagent (Roche Diagnostics, Indianapolis, IN), according to the manufacturer's instructions. […] The virus-containing cell culture supernatants were harvested twice: once at 24 h and again at 48 h. Prior to use, the viral media was filtered through a 0.45-µm filter and added onto 70% confluent 75 cc flasks of MDA-MB-231 cells, in the presence of 8 µg/mL hexadimethrine bromide. The viruses were allowed to infect the cells for 16–18 h, after which the media containing viruses was replaced with fresh media for a further 24 h prior to analysis of knockdown of V1E1 expression. The knockdown efficiency was analyzed by Western blotting, performed as described previously. […] Anti-goat HRP-conjugated secondary antibody (Santa Cruz Biotechnology) was used at a 1∶5000 dilution, and anti-mouse HRP-conjugated secondary antibody was used at a 1∶1000 dilution.
Cell sensitivity to compounds was evaluated using the WST-1 (4-[3[(4-iodophenyl)-2-(4-nitrophenyl)-2H-5-tetrazolio]-1,3-benzene disulfonate) assay (BioAssay Systems, Hayward, CA), which was performed according to the manufacturer's instructions. Briefly, 4000 cells were seeded per well of a 96-well plate and allowed to adhere overnight. Cells were incubated in increasing concentrations (9 different concentrations ranging from 0.00001 µM to 1000 µM) of drug for a period of 72 h. At the end of the drug treatment period, 10 µL of WST-1 reagent was added per well, allowed to incubate at 37°C for 2 hours, and absorbance at 450 and 620 nm (reference) was measured using a Multiskan model MCC/340 microplate reader (ThermoElectron Corp, Hudson, NH). Cell viability as a percent of control (untreated) cells was plotted against drug concentration to generate cytotoxicity curves, which were fit to 3 or 4 parameter logistic Hill plots using SigmaPlot. IC50 values were determined from the curve fit.

Details of series [2]: method as in PMID 17163760. To be noted: previously measured; cited from earlier work.
The nature of series [3]: pKa determination by 1H NMR pH titration. It is filed as physicochemical. How it is done:
The pKa values for analogs 1, 2, 3, 5 and 6 (see Figure 2 for chemical structures) were measured at 37°C using ^1H NMR. To determine the pKa using this method, the chemical shifts of protons alpha to the ionizable amine were plotted against pH, yielding sigmoidal curves (Figure S1) from which pKa was derived. […] Therefore, we report a previously measured pKa value for compound 4 that was procured using an alternative approach, and we report a calculated value for compound 7 (see Materials and Methods). […] Only the higher pKa value is reported in Figure 2 because the second is too low to theoretically contribute to ion trapping in lysosomes.
All NMR solvents and reagents were obtained from Cambridge Isotope Labs (Andover, MA), unless noted otherwise. Compounds were dissolved at a 2–3 mg/mL concentration in D2O. pD measurements in D2O were performed using a MiniLab model IQ125 pH electrode (Fisher Scientific, Pittsburg, PA). pD was adjusted using NaOD (40% in D2O) or DCl (20% in D2O). ^1H NMR spectra were recorded at 37°C using a Bruker 400 MHz NMR and analyzed using the Bruker Topspin software. […] (DSS) was used as the reference peak. pD was converted to pH using the following expression: pH = 0.936pD*+0.412 [45]. The change in chemical shift of protons alpha to the amine as a function of pH yielded sigmoidal plots that were fit to a 4-parameter logistic equation using SigmaPlot (Systat Software, San Jose, CA) from which pKa was determined. The calculated pKa for compound 7 was determined using the MarvinSketch version 5.3.8. pKa plugin (www.chemaxon.com).

The conditions of series [4]: cited from earlier work.
Setting [5] is: 1H NMR in D2O, 37°C, n = 1, for compound 5 the higher pKa, read-out: pKa.

Turning to `O=c1[nH]cc(F)c(=O)[nH]1` [5-fluorouracil], the “IDB selectivity (IC50 low lysosomal pH / IC50 elevated lysosomal pH MDA-MB-231)” value in series [1] was around 1; in series [1] (72 h, WST-1, n = 3), “one and did not show appreciable IDB selectivity”.

Consider `CO[C@H]1/C=C\C=C(/C)C(=O)NC2=CC(=O)C(NCCN(C)C)=C(C[C@@H](C)C[C@H](OC)[C@H](O)[C@@H](C)/C=C(\C)[C@@H]1OC(N)=O)C2=O` [17-DMAG], for which, in series [2], the alpha value was 0.01.

As for `COC1C=CC=C(C)C(=O)NC2=CC(=O)C(NCCc3cccnc3)=C(CC(C)CC(OC)C(O)C(C)C=C(C)C1OC(N)=O)C2=O` (centres unmarked) [Compound 1], the pKa in series [3] (setting [5]) came to 5.8.

`COC1C=CC=C(C)C(=O)NC2=CC(=O)C(NCCN(C)C)=C(CC(C)CC(OC)C(O)C(C)C=C(C)C1OC(N)=O)C2=O` (centres unmarked) [Compound 3] had a pKa in series [3] of 7.8.

With `COC1C=CC=C(C)C(=O)NC2=CC(=O)C(NCCN3CCNCC3)=C(CC(C)CC(OC)C(O)C(C)C=C(C)C1OC(N)=O)C2=O` (centres unmarked) [Compound 5], the pKa in series [3] (setting [5]) was determined as 9.9; in series [3] (1H NMR, 37°C, too low to contribute to ion trapping, read-out: pKa (second, lower value)), 4.2.

For the molecule `COC1C=CC=C(C)C(=O)NC2=CC(=O)C(NCCC3CCNCC3)=C(CC(C)CC(OC)C(O)C(C)C=C(C)C1OC(N)=O)C2=O` (centres unmarked) [Compound 6], the pKa in series [3] (setting [5]) turned out to be 10.5.

As to `COc1cccc2c1C(=O)c1c(O)c3c(c(O)c1C2=O)C[C@@](O)(C(C)=O)C[C@@H]3O[C@H]1C[C@H](N)[C@H](O)[C@H](C)O1` [daunorubicin], the “IDB selectivity (IC50 low lysosomal pH / IC50 elevated lysosomal pH MDA-MB-231)” value in series [1] is “significant but different degrees of IDB selectivity; also recorded: significantly higher IDB selectivity than did mitoxantrone”.

Take `O=C1c2c(O)ccc(O)c2C(=O)c2c(NCCNCCO)ccc(NCCNCCO)c21` [mitoxantrone]: the “pKa” value in series [4] (in Figure 6) is 6; in series [4] (weakly basic), 8.1; in series [4] (weakly basic, listed as Mitoxantrone), around 8. The “IDB selectivity (IC50 low lysosomal pH / IC50 elevated lysosomal pH MDA-MB-231)” value in series [1] (72 h, WST-1, n = 3) was “significant but different degrees of IDB selectivity”; in series [1] (72 h, WST-1, n = 3, listed as Mitoxantrone), “significant IDB selectivity”.
